Source: PMC9775322, “An Integrated Analysis of Mechanistic Insights into Biomolecular Interactions and Molecular Dynamics of Bio-Inspired Cu(II) and Zn(II) Complexes towards DNA/BSA/SARS-CoV-2 3CL^pro by Molecular Docking-Based Virtual Screening and FRET Detection” (Biomolecules, 2022)

Tests used:
[1] = molecular target: T1, BSA (Bos taurus, UniProt P02769); experiment: BSA binding by UV–vis absorption titration; design: species or system bovine; conditions: for Δλ (nm) (blue shift of BSA band at 278 nm) / Chromism (% H) (hyperchromism): BSA 25 μM, compound 0–25 μM; for Chromism (% H) (hyperchromism): 278 nm; for Binding Constant Kapp by BH Method: BSA, UV–Vis titration; for ΔGb°: −RT ln Kapp, T = 298 K
T1 construct: purchased Sigma Aldrich
T1 sequence (P02769 25-607): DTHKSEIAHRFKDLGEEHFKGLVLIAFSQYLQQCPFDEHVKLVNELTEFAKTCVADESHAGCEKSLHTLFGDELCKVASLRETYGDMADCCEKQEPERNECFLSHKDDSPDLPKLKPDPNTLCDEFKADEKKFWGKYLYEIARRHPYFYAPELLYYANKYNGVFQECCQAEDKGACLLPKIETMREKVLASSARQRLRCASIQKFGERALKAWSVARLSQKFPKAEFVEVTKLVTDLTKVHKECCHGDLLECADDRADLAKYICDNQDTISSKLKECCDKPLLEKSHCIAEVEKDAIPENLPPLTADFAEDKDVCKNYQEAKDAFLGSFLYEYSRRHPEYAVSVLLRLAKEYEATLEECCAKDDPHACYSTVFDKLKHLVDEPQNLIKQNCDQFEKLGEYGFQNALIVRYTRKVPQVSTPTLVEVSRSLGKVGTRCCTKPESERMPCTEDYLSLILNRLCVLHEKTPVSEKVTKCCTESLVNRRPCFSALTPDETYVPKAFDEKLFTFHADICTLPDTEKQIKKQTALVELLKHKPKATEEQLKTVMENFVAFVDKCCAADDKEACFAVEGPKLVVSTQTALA
Description: UV–vis spectral titrations were performed with a 25 μM concentration of BSA at room temperature with a 5 mM Tris-HCl/50 mM NaCl buffer solution (pH: 7.4). When the sample concentrations (0–25 μM) increased in the same BSA concentration solution, the alteration in the absorption band at 278 nm was continuously monitored.
2.2.8. UV-Vis absorption titrations for the BSA binding assay
The test compound concentrations (0 –25 μM) were varied during the electronic absorption titrations, which were conducted at a fixed BSA concentration (25 μM) in aqueous media (pH = 7.2) at 25 °C. The property of BSA is also confirmed by the observation of a strong absorption band in the UV region at 278 nm. […] The increment of the test compound causes a gradual increase in the BSA absorption band, which leads to the […]
owing to non-covalent interaction of the test compound with BSA [33].
∆Amax = (A∞ - A0), ∆A = (Ax - A0), A0 , Ax and A∞ are denoted as the absorbance of free BSA, the absorbance of BSA in the increment concentrations of the compound, and the absorbance value of the fully bound form of bovine serum albumin with substance, respectively.

[2] = system: Mucor indicus; experiment: Agar disc diffusion antifungal test; conditions: for diameter of clear zone inhibition / Inhibition %: J; for diameter of clear zone inhibition: 20 µL of 100 µM on 6 mm disc, Control (DMSO) = 6 mm; for Inhibition %: (T–C)/T × 100
[3] = molecular target: T1, BSA; experiment: Förster's theory-based FRET computation, donor (BSA)–acceptor (compound); assay type: binding, bovine; design: kET (rate of exchange resonance energy transfer): unit not given here; conditions: for J (normalized spectral overlap integral): BSA emission vs compound absorption; for kET (rate of exchange resonance energy transfer) / r (donor-acceptor separation): BSA–compound; for E (efficiency of energy transfer): E=1−F/F0; for B (average brightness of the complex-BSA system): free BSA = 6573.60 M^−1 cm^−1; for R0 (critical distance, 50% energy transfer): n = 1.36, Φ = 0.15, K^2 = 2/3
Text: As per Förster’s theory, the critical distance of the donor-acceptor system can be determined with the supporting of the FRET approach to assess the binding affinity between BSA-substance systems. […]
excitation and emission directions, respectively. Also, the alteration in absorbance (OD) at the excitation and fluorescence wavelengths, respectively, is sometimes referred to as A ex and […]
F = 1+KSV [Q] = 1+ Kq τ0 (S13)
Where [Q] is represented as the sample concentration (quencher), the emission intensities F 0 and F are those in the […] of the quencher, respectively.
F ) = log Kass + nlog [Q] (S14)
KEB[EB] = Kapp[compound] (S15)
∆F = (F 0–F), Equation (16) was utilized to examine the Lineweaver –Burk binding constant (KLB) from the linear regression plot of 1/(F0–F) vs 1/[Q]. […]
γ =(F0–F)/F0, CF is denoted as the concentration of sample alone, the linear regression plot of (γ/CF) vs γ was employed to support equation (17), which was used to determine the values of KSA and n, respectively.
2.2.6. FRET calculation by Förster’s theory
Calculating FRET (Fluorescence Resonance Energy Transfer) is a crucial approach in determining the critical distance (r) between donor (BSA) and acceptor (test compound) molecules, in which the binding affinity between the BSA-complex systems could be evalued according to Förster’s theory. The overlap of the emission spectrum of the donor (BSA) and the absorption spectrum of the acceptor (compound) describes that the acceptor (compound) group may get excited as a result of the excited donor's (BSA) energy being lost to the ground […]
The relative orientation factor of the dipoles (K 2) is associated with the geometry of the BSA and complex of the dipoles, the value for random orientation (K 2 = 2/3) like in a fluid […]
F(λ) is represented as the corrected or the normalized emission intensity(OD) of the bovine serum albumin in the range of λ–(λ+∆λ), ε(λ) is denoted as the molar extinction coefficient of […]
The radiative, non-radiative decay and quenching rate constants are denoted as k r, knr and kq, respectively, and the concentration of complex (quenching species) is described as [Q].

[4] = system: Escherichia coli; experiment: Agar disc diffusion antibacterial test; conditions: for diameter of clear zone inhibition / Inhibition %: A, (-) Escherichia coli; for diameter of clear zone inhibition: 20 µL of 100 µM on 6 mm disc, Control (DMSO) = 6 mm; for Inhibition %: (T–C)/T × 100
[5] = Nitric oxide scavenging assay; assay type: biochemical; conditions: 546 nm
[6] = system: Candida albicans; experiment: Agar disc diffusion antifungal test; conditions: for diameter of clear zone inhibition / Inhibition %: I; for diameter of clear zone inhibition: 20 µL of 100 µM on 6 mm disc, Control (DMSO) = 6 mm; for Inhibition %: (T–C)/T × 100
[7] = system: Staphylococcus Aureus; experiment: Agar disc diffusion antibacterial test; conditions: for diameter of clear zone inhibition / Inhibition %: F, (+) Staphylococcus Aureus; for diameter of clear zone inhibition: 20 µL of 100 µM on 6 mm disc, Control (DMSO) = 6 mm; for Inhibition %: (T–C)/T × 100
[8] = Superoxide scavenging assay; assay type: biochemical; conditions: 590 nm
[9] = system: Shigella flexneri; experiment: Agar disc diffusion antibacterial test; conditions: for diameter of clear zone inhibition / Inhibition %: E, (-) Shigella flexneri; for diameter of clear zone inhibition: 20 µL of 100 µM on 6 mm disc, Control (DMSO) = 6 mm; for Inhibition %: (T–C)/T × 100
[10] = read-out: diameter of clear zone inhibition

SMILES | Δλ (nm) (blue shift of BSA band at 278 nm) [1] | Chromism (% H) (hyperchromism) [1] [%] | ΔGb° [1] [kJmol^−1] | Inhibition % [2] [%] | J (normalized spectral overlap integral) [3] | kET (rate of exchange resonance energy transfer) [3] | r (donor-acceptor separation) [3] [nm] | E (efficiency of energy transfer) [3] | B (average brightness of the complex-BSA system) [3] [M⁻¹ cm⁻¹] | R0 (critical distance, 50% energy transfer) [3] [nm] | Inhibition % [4] [%] | % Inhibition, nitric oxide ([5]; 40 µM) [%] | % Inhibition, nitric oxide ([5]; 80 µM) [%] | % Inhibition, nitric oxide ([5]; 120 µM) [%] | % Inhibition, nitric oxide ([5]; 160 µM) [%] | % Inhibition, nitric oxide ([5]; 200 µM) [%] | % Inhibition, nitric oxide ([5]; 240 µM) [%] | Inhibition % [6] [%] | Inhibition % [7] [%] | % Inhibition, superoxide ([8]; 40 µM) [%] | other results
[Cu+2].[O-]c1ccccc1N=Cc1ccc(N2CCOCC2)cc1.[O-]c1ccccc1N=Cc1ccc(N2CCOCC2)cc1.c1cnc2c(c1)ccc1cccnc12 [(1b), [Cu^II(L)2(phen)]] | 8 | 64.70 | −25.9330 | 40 | 0.6852 × 10^−14 LM^−1cm^3 | 3.8294 | 2.7780 | 0.2769 | 4999.08 | 2.3673 | 33 | 18.03 | 25.43 | 35.67 | 42.86 | 52.29 | 66.21 | 45 | 45 | 08.45 | Binding Constant Kapp by BH Method [1]: 35140 M⁻¹; diameter of clear zone inhibition [2]: 10 mm; diameter of clear zone inhibition [4]: 9 mm; diameter of clear zone inhibition [6]: 11 mm; diameter of clear zone inhibition [7]: 11 mm; % Inhibition, superoxide ([8]; 80 µM): 16.53%; % Inhibition, superoxide ([8]; 120 µM): 32.18%; % Inhibition, superoxide ([8]; 160 µM): 48.09%; % Inhibition, superoxide ([8]; 200 µM): 60.93%; % Inhibition, superoxide ([8]; 240 µM): 68.21%; IC50 [8]: 200 µM; diameter of clear zone inhibition [9]: 17 mm; Inhibition % [9]: 65%
[O-]c1ccccc1N=Cc1ccc(N2CCOCC2)cc1.[O-]c1ccccc1N=Cc1ccc(N2CCOCC2)cc1.[Zn+2].c1cnc2c(c1)ccc1cccnc12 [(2b), [Zn^II(L)2(phen)]] | 8 | 62.16 | −24.7590 | 40 | 0.9460 × 10^−14 LM^−1cm^3 | 4.7730 | 2.8257 | 0.3231 | 5650.81 | 2.4980 | 40 | 14.67 | 22.43 | 29.42 | 38.82 | 45.53 | 59.88 | 40 | 45 | 06.70 | Binding Constant Kapp by BH Method [1]: 21878 M⁻¹; diameter of clear zone inhibition [2]: 10 mm; diameter of clear zone inhibition [4]: 10 mm; diameter of clear zone inhibition [6]: 10 mm; diameter of clear zone inhibition [7]: 11 mm; % Inhibition, superoxide ([8]; 80 µM): 12.58%; % Inhibition, superoxide ([8]; 120 µM): 24.23%; % Inhibition, superoxide ([8]; 160 µM): 40.35%; % Inhibition, superoxide ([8]; 200 µM): 52.23%; % Inhibition, superoxide ([8]; 240 µM): 60.02%; diameter of clear zone inhibition [9]: 14 mm; Inhibition % [9]: 57%
Oc1ccccc1N=Cc1ccc(N2CCOCC2)cc1 [(HL), 2-(4-morpholinobenzylideneamino)phenol] | 2 | 47.79 | −22.3387 | 45 | 0.8215 × 10^−14 LM^−1cm^3 | 5.8443 | 2.6685 | 0.3462 | 5339.79 | 2.4400 | 33 | 11.42 | 18.26 | 24.28 | 33.21 | 40.53 | 51.62 | 40 | 33 | 05.23 | zone of inhibition at 100 µM [2, 10]: 11 mm; zone of inhibition at 100 µM ([4]; Escherichia coli, read-out: diameter of clear zone inhibition): 9 mm; zone of inhibition at 100 µM [6, 10]: 10 mm; zone of inhibition at 100 µM ([7]; Staphylococcus aureus, read-out: diameter of clear zone inhibition): 9 mm; % Inhibition, superoxide ([8]; 80 µM): 10.74%; % Inhibition, superoxide ([8]; 120 µM): 18.85%; % Inhibition, superoxide ([8]; 160 µM): 33.55%; % Inhibition, superoxide ([8]; 200 µM): 40.91%; % Inhibition, superoxide ([8]; 240 µM): 50.42%; Inhibition % [9]: 57%; zone of inhibition at 100 µM ([9]; Shigella flexneri, read-out: diameter of clear zone inhibition): 14 mm
